Measurements reported in US20040247589A1, “Anti-tumor activity from reptile serum” (priority 2001, published 2004).

Tests used:
PN71 cells = assay: Cell proliferation assay (BrdU) in PN71 cells; assay type: cell-based, murine
Procedure: (§1) Cell proliferation was assayed using the commercial ELISA kit BIOTRACK™ (RPN250, Amersham Life Sciences). The assay is based on incorporation of 5-bromo-2′-deoxyuridine (BrdU) during DNA synthesis. After treatment of cells with the tested agent for 24 hours, cells are incubated for 18 hours in the presence of 10 μM BrdU. This pyrimidine analog is incorporated into DNA and is detected using specific antibody conjugated to peroxidase following 3,3′,5′,5′-tetramethylbenzidine (TMB) as a substrate. The absorbance of the enzymatic product is measured at 450 nm.

normal bone marrow cells = assay: Cell proliferation assay (BrdU) in normal bone marrow cells; assay type: cell-based; conditions: normal human bone marrow cells
Procedure: as §1

**Q.** With `Nc1ccn([C@@H]2O[C@H](CO)[C@@H](O)[C@@H]2O)c(=O)n1` [Cytosar, Cytarabine] as the compound, how does the “effect on proliferation (BrdU) of PN71 cells” value (PN71 cells) read?
**A.** indiscriminately destroys

**Q.** And the “effect on proliferation (BrdU) of normal bone marrow cells” value (normal bone marrow cells)?
**A.** indiscriminately destroys
